Test results from US20130158070A1, “CONJUGATES OF POLYUNSATURATED FATTY ACIDS AND AMINE-CONTAINING COMPOUNDS AND USES THEREOF” (priority 2010, published 2013).

Columns and labels:
[1] = Pharmacokinetic profile after oral administration in rats; type: in vivo, Sprague-Dawley male rats
Description: Evaluation of the pharmacokinetic profile of MWL001 after oral administration in rats was performed.
Sprague-Dawley male rats weighing 300-325 g were used to evaluate the oral absorption of MWL001 and its blood levels. They were deprived of food overnight and given free access to water. A dose of 10 mg/kg MWL-001 (3.3 mg/rat) was dispersed in 2.5 mL DDW and delivered to the rats by oral gavage. Blood samples (300 μl) from the rats' tails were collected in heparin containing tubes at 0, 0.5, 1, 1.5, 2, 3, 4, 6, 8, 12 and 24 h. The samples were immediately centrifuged at 10,000 rpm for 5 min, after which 150 μl of plasma samples were transferred to new tubes and stored at −80° C. until analyzed by LCMS/MS.
The assay was based on protein precipitation of MWL001 and DHA (as an MWL001 metabolite) using methanol (100 μL plasma sample mixed with […] of methanol. The separation was carried out under reverse-phase conditions employing a Phenomenex Synergi, column (MAX-RP, 50×2 mm, 2.5 μm, 100A (in gradient mode. The mobile phase A was methanol/water/formic acid 20/80/0.2 and the mobile phase B was methanol/water/formic acid 80/20/0.2. The flow rate was maintained at 0.3 mL/min, and the column was maintained at 40° C. HPLC-MS/MS analysis was performed with a Shimadzu LC-20 HPLC system coupled with a Sciex Qtrap 3200 Turbo Ion Spray detector in positive ionization mode. The tested samples were quantified against a calibration curve in the range of 5-50 ng/mL.

[2] = tested on: oxazolone-induced allergic dermatitis; test: Murine oxazolone-induced allergic dermatitis; type: in vivo, mice
Excerpt: An allergic form of contact dermatitis can be induced in mice by repeated epicutaneous application of the chemical sensitizer oxazolone. This leads to local augmented thickness and weight increase of the skin area where the rechallenge was applied; from the histological point of view, oxazolone-induced dermatitis is characterized by severe mononuclear cell infiltration of the dermis with in situ production of the type 1 proinflammatory cytokines TNF-alpha, IL-1alpha and IFN-gamma. These well-defined mechanistic pathways of inflammatory skin damage make oxazolone-dermatitis a useful in vivo tool for pathogenic studies and a pharmacodynamic parameter to screen drugs of potential utility in counteracting type 1 cytokine dependent cutaneous immunoinflammatory responses such as those found in some forms of bullous disorders, cutaneous vasculitis and psoriasis.
The efficacy of MWL001 in the treatment of Murine oxazolone-induced allergic dermatitis was evaluated. MWL001 and DEX were administered one hour after the second challenge with oxazolone.
The mice were sensitized on day 0 by a single application of 10 ∞l of 2% oxazolone (Sigma Chimica, Milan, Italy) in ethanol to the inner and outer surface of the left ear. The disease was elicited by local rechallenge on day 7 with 15% oxazolone. The right ear was treated with the vehicle of oxazolone (acetone). Eighteen hours after […] the mice are sacrificed under ether anesthesia and both the right and left ears were excised.
Inflammation was assessed as the percentage increase in ear thickness and/or ear weight in the treated left ear vs. the vehicle-treated right ear. Ear thickness was measured with a digital calliper. The extent of the inflammation was quantified as follows: ear swelling (%)=100×(a−b)/b, where a is thickness/weight of the left (treated) ear and b is the thickness/weight of the right (untreated) ear.
Ear tissue samples were fixed with 4% formaldehyde in phosphate-buffered saline (PBS) and embedded in paraffin. Thereafter, 6-μm sections were deparaffinized with xylene, stained with hematoxylin-eosin and observed with a Zeiss microscope (Jena, Germany).

[3] = tested on: collagen induced arthritis; test: Collagen induced arthritis (CIA), arthritis score, paw thickness, body weight; type: in vivo, DBA/1J mice
Description: In a different study, 34 male 8-10 weeks old DBA/1J mice were used. Animals were fed ad libitum a commercial rodent diet (Teklad Certified Global 18% Protein Diet cat #: 106S8216). Animals had free access to acidified drinking water (pH between 2.5 and 3.0) obtained from the municipality supply.
The effect of MWL-002 (conjugate of DHA and taurine) was tested and compared to that of Ibuprofen. Cremophore EL was used as a vehicle.
On day 0, each mouse was anesthetized by inhalation of 3% isofluorane and injected intradermally at the base of the tail with 0.1 ml of emulsion containing 100 μg collagen, using a 1-ml glass syringe with a 26-guade needle. Booster injection was performed at day 15 to the same injection site.
The tested materials were administered 3 times a week, via IP for a total of 12 administrations starting on day 1.
Observations for clinical score were performed twice weekly until study termination.
The severity of arthritis was scored based on the level of inflammation in each of the four paws and recorded as one of five grades according to the following:
Hind paw thickness (edema) was measured by digital caliper once a week until Day 14 and thereafter twice weekly and prior to study termination. Two cross sectional areas were marked, one on the paw and the other at the ankle (tarsal joint). Two measurements were made on each section, perpendicular to each other. The results obtained were calculated as the average areas of both hind limbs per animal.
Body weight was measured prior to dosing, during the study twice a week and prior to study termination.

[4] = Acute intraperitoneal (IP) toxicity in the mouse; settings: both sexes, in vivo, single IP injection, male and female ICR mice, read-out: MTD (Maximum Tolerated Dose)
Description: The objective of this study was to determine the MTD (Maximum Tolerated Dose) and/or assess the potential toxic effects in terms of the MFD (Maximum Feasible Dose) following an acute intraperitoneal (IP) injection of the Test Item MWL002 (Batch No.: 201109) to male and female ICR mice, in consideration of its intended use as an anti-inflammatory and pain relief agent.
MWL002 (Batch No.: 201109) was injected at two dose levels of 1000 (corresponding to the MFD) and 200 mg/kg to two groups consisting of three male and three female ICR mice per group, by a single intraperitoneal (IP) injection. An additional equally-sized group was injected with vehicle and served as the Control group. Dosing was sequential using three male and three female mice per step at 14 days interval. The Test Item or Vehicle Control Dosing Solutions were freshly prepared by the Testing Facility on each day of dosing, by diluting the Test Item or Vehicle Control with Physiological Saline according to the appropriate dose level and a constant volume dosage of 4 ml/kg.

[5] = male, Sprague-Dawley, rat, 10 mg/kg oral gavage, plasma
[6] = eighteen hours after sensitization, given one hour after second oxazolone challenge

Row | Compound | Cl (Clearence) ([1]; 10 mg/kg oral gavage, plasma) | V (Volume of distribution) ([1]; 10 mg/kg oral gavage, plasma) | oral absorption / bioavailability ([1]; 10 mg/kg oral, FIG. 9) | AUC [1, 5] | Cmax [1, 5] | Tmax [1, 5] | half-life ([1]; male, Sprague-Dawley, rat, 10 mg/kg oral gavage, plasma, read-out: T½ (converted)) | metabolism (major metabolite) ([1]; oral, plasma, FIG. 9) | ear thickness [2, 6] | ear weight [2, 6] | histology: ear thickness and inflammatory cells in epidermis and dermis ([2]; hematoxylin and eosin stained sections) | day from which arthritis score (AS) increases ([3]; 50 mg/kg IP, 3 times a week, 12 administrations) | CIA development ([3]; 50 mg/kg IP, overall conclusion) | body weight ([3]; 50 mg/kg IP, from day 37, in comparison to the other 3 groups) | arthritis thickness index (ATI) increase ([3]; from day 0 to day 70, 50 mg/kg IP, groups 1M DHA-Tau, 2M DHA, 4M Ibuprofen) | ATI course ([3]; from day 43 until end of study, FIG. 8B) | MTD [4]
1 | CCC=CCC=CCC=CCC=CCC=CCC=CCCC(=O)N1CC(O)CC1C(=O)O (centres unmarked) [MWL001] | 25.212 ± 3.152 mL/min/kg | 11283.0 ± 3583.1 | high bioavailability | 6690 ± 838 ng·h/mL | 1040 ± 77.5 ng/mL | 2.3 ± 0.5 h | 4.9 ± 0.6 h | undergoes decomposition to DHA | decreased ear thickness | decreased ear weight | markedly reduced | – | – | – | – | – | –
2 | CC/C=C\C/C=C\C/C=C\C/C=C\C/C=C\C/C=C\CCC(=O)NCCS(=O)(=O)O [MWL002, N-docosa-4,7,10,13,16,19-hexaenoyl-taurine] | – | – | – | – | – | – | – | – | – | – | – | 57 days | inhibits CIA development robustly | increase the body weight in a major percent | 150% | almost no changes | 200 to 1000 mg/kg
